# Data reported in ChEMBL document CHEMBL4002623, “Synthesis and in vitro activity of dicationic indolyl diphenyl ethers as novel potent antibiotic agents against drug-resistant bacteria” (Bioorg Med Chem Lett, 2017).
# What was measured:
# Staphylococcus aureus [1] = test: Antibacterial activity against methicillin-sensitive Staphylococcus aureus ATCC 29213 by agar dilution method; assay type: functional
# Staphylococcus aureus [2] = test: Antibacterial activity against methicillin-resistant Staphylococcus aureus 09-13 by agar dilution method; assay type: functional
# [3] = test system: Staphylococcus epidermidis; test: Antibacterial activity against methicillin-sensitive Staphylococcus epidermidis ATCC 12228 by agar dilution method; assay type: functional
# [4] = test system: Staphylococcus epidermidis; test: Antibacterial activity against methicillin-resistant Staphylococcus epidermidis 09-3 by agar dilution method; assay type: functional
# Enterococcus faecalis [5] = test: Antibacterial activity against vancomycin-sensitive Enterococcus faecalis ATCC 29212 by agar dilution method; assay type: functional
# Enterococcus faecalis [6] = test: Antibacterial activity against vancomycin-resistant Enterococcus faecalis 09-9 by agar dilution method; assay type: functional
# Enterococcus faecium [7] = test: Antibacterial activity against vancomycin-resistant Enterococcus faecium ATCC 700221 by agar dilution method; assay type: functional
# Escherichia coli [8] = test: Antibacterial activity against extended-spectrum beta-lactamase-negative Escherichia coli ATCC 25922 by agar dilution method; assay type: functional
# Escherichia coli [9] = test: Antibacterial activity against extended-spectrum beta-lactamase-positive Escherichia coli 09-1 by agar dilution method; assay type: functional
# Klebsiella pneumoniae [10] = test: Antibacterial activity against extended-spectrum beta-lactamase-negative Klebsiella pneumoniae 7 by agar dilution method; assay type: functional
# Klebsiella pneumoniae [11] = test: Antibacterial activity against extended-spectrum beta-lactamase-positive Klebsiella pneumoniae 09-25 by agar dilution method; assay type: functional
# Klebsiella pneumoniae [12] = test: Antibacterial activity against Klebsiella pneumoniae ATCC BAA-2146 expressing NDM-1 by agar dilution method; assay type: functional
# [13] = Cytotoxicity against HEK293T cells after 48 hrs by MTS assay; assay type: cell-based, HEK-293T; details: human
# Enterococcus faecium [14] = test: Antibacterial activity against vancomycin-sensitive Enterococcus faecium 09-10 by agar dilution method; assay type: functional
# Staphylococcus aureus [15] = test: Antibacterial activity against methicillin-resistant Staphylococcus aureus ATCC 33591 by agar dilution method; assay type: functional
# Staphylococcus aureus [16] = test: Antibacterial activity against methicillin-sensitive Staphylococcus aureus 15 by agar dilution method; assay type: functional
# Staphylococcus aureus [17] = test: Antibacterial activity against methicillin-sensitive Staphylococcus aureus 09-6 by agar dilution method; assay type: functional
# [18] = test system: Staphylococcus epidermidis; test: Antibacterial activity against methicillin-sensitive Staphylococcus epidermidis 09-9 by agar dilution method; assay type: functional
# Enterococcus faecalis [19] = test: Antibacterial activity against vancomycin-resistant Enterococcus faecalis ATCC 51299 by agar dilution method; assay type: functional
# Enterococcus faecalis [20] = test: Antibacterial activity against vancomycin-sensitive Enterococcus faecalis 09-8 by agar dilution method; assay type: functional
# Enterococcus faecium [21] = test: Antibacterial activity against vancomycin-resistant Enterococcus faecium 05-8 by agar dilution method; assay type: functional
# Escherichia coli [22] = test: Antibacterial activity against extended-spectrum beta-lactamase-negative Escherichia coli 1515 by agar dilution method; assay type: functional
# Escherichia coli [23] = test: Antibacterial activity against extended-spectrum beta-lactamase-negative Escherichia coli 09-20 by agar dilution method; assay type: functional
# Klebsiella pneumoniae [24] = test: Antibacterial activity against extended-spectrum beta-lactamase-positive Klebsiella pneumoniae ATCC 700603 by agar dilution method; assay type: functional
# Klebsiella pneumoniae [25] = test: Antibacterial activity against extended-spectrum beta-lactamase-negative Klebsiella pneumoniae 09-8 by agar dilution method; assay type: functional
# Pseudomonas aeruginosa [26] = test: Antibacterial activity against Pseudomonas aeruginosa ATCC 27853 by agar dilution method; assay type: functional
# Pseudomonas aeruginosa [27] = test: Antibacterial activity against Pseudomonas aeruginosa PAO1 by agar dilution method; assay type: functional
# Pseudomonas aeruginosa [28] = test: Antibacterial activity against Pseudomonas aeruginosa 09-14 by agar dilution method; assay type: functional
# [29] = test system: Acinetobacter calcoaceticus; test: Antibacterial activity against Acinetobacter calcoaceticus ATCC 19606 by agar dilution method; assay type: functional
# Enterobacter cloacae = test: Antibacterial activity against Enterobacter cloacae 45301 by agar dilution method; assay type: functional
# Klebsiella aerogenes = test: Antibacterial activity against Enterobacter aerogenes 45102 by agar dilution method; assay type: functional
# Serratia marcescens = test: Antibacterial activity against Serratia marcescens 41002 by agar dilution method; assay type: functional
# Morganella morganii = test: Antibacterial activity against Morganella morganii ATCC 25830 by agar dilution method; assay type: functional
# Providencia rettgeri = test: Antibacterial activity against Providencia rettgeri ATCC 31052 by agar dilution method; assay type: functional
# Proteus vulgaris = test: Antibacterial activity against Proteus vulgaris ATCC 29905 by agar dilution method; assay type: functional
# Proteus mirabilis = test: Antibacterial activity against Proteus mirabilis 09-1 by agar dilution method; assay type: functional
# Salmonella typhi = test: Antibacterial activity against Salmonella typhi H901 by agar dilution method; assay type: functional, Salmonella enterica subsp. enterica serovar Typhi; details: Salmonella enterica
# Citrobacter freundii = test: Antibacterial activity against Citrobacter freundii ATCC 43864 by agar dilution method; assay type: functional
# Klebsiella pneumoniae [30] = test: Potency index, ratio of levofloxacin MIC to test compound MIC for Klebsiella pneumoniae ATCC BAA-2146 expressing NDM-1; assay type: functional
# Staphylococcus aureus [31] = test: Potency index, ratio of levofloxacin MIC to test compound MIC for methicillin-resistant Staphylococcus aureus 09-13; assay type: functional
# [32] = test system: Staphylococcus epidermidis; test: Potency index, ratio of levofloxacin MIC to test compound MIC for methicillin-resistant Staphylococcus epidermidis 09-3; assay type: functional
# Enterococcus faecalis [33] = test: Potency index, ratio of levofloxacin MIC to test compound MIC for vancomycin-resistant Enterococcus faecalis 09-9; assay type: functional
# Enterococcus faecium [34] = test: Potency index, ratio of levofloxacin MIC to test compound MIC for vancomycin-resistant Enterococcus faecium ATCC 700221; assay type: functional
structure (smiles),measurement,setting,value
CN(C)C(=N)c1ccc2cc(-c3ccc(Oc4ccc(-c5cc6ccc(C(=N)N(C)C)cc6[nH]5)cc4)cc3)[nH]c2c1,MIC,Staphylococcus aureus [1],0.25 µg/mL
same,MIC,Staphylococcus aureus [2],0.25 µg/mL
same,MIC,[3],0.125 µg/mL
same,MIC,[4],0.25 µg/mL
same,MIC,Enterococcus faecalis [5],0.5 µg/mL
same,MIC,Enterococcus faecalis [6],2 µg/mL
same,MIC,Enterococcus faecium [7],2 µg/mL
same,MIC,Escherichia coli [8],4 µg/mL
same,MIC,Escherichia coli [9],8 µg/mL
same,MIC,Klebsiella pneumoniae [10],8 µg/mL
same,MIC,Klebsiella pneumoniae [11],8 µg/mL
same,MIC,Klebsiella pneumoniae [12],8 µg/mL
same,CC50 at 48 h,[13],21.6 µg/mL
same,MIC,Enterococcus faecium [14],2 µg/mL
same,MIC,Staphylococcus aureus [15],0.25 µg/mL
same,MIC,Staphylococcus aureus [16],0.25 µg/mL
same,MIC,Staphylococcus aureus [17],0.25 µg/mL
same,MIC,[18],0.25 µg/mL
same,MIC,Enterococcus faecalis [19],1 µg/mL
same,MIC,Enterococcus faecalis [20],2 µg/mL
same,MIC,Enterococcus faecium [21],2 µg/mL
same,MIC,Escherichia coli [22],4 µg/mL
same,MIC,Escherichia coli [23],8 µg/mL
same,MIC,Klebsiella pneumoniae [24],8 µg/mL
same,MIC,Klebsiella pneumoniae [25],8 µg/mL
same,MIC,Pseudomonas aeruginosa [26],128 µg/mL
same,MIC,Pseudomonas aeruginosa [27],> 128 µg/mL
same,MIC,Pseudomonas aeruginosa [28],> 128 µg/mL
same,MIC,[29],> 128 µg/mL
same,MIC,Enterobacter cloacae,64 µg/mL
same,MIC,Klebsiella aerogenes,8 µg/mL
same,MIC,Serratia marcescens,32 µg/mL
same,MIC,Morganella morganii,> 128 µg/mL
same,MIC,Providencia rettgeri,8 µg/mL
same,MIC,Proteus vulgaris,8 µg/mL
same,MIC,Proteus mirabilis,32 µg/mL
same,MIC,Salmonella typhi,16 µg/mL
same,MIC,Citrobacter freundii,8 µg/mL
same,Ratio,Klebsiella pneumoniae [30],>16
N=C(c1ccc2cc(-c3ccc(Oc4ccc(-c5cc6ccc(C(=N)N7CCC7)cc6[nH]5)cc4)cc3)[nH]c2c1)N1CCC1,MIC,Staphylococcus aureus [1],2 µg/mL
same,MIC,Staphylococcus aureus [2],0.5 µg/mL
same,MIC,[3],0.125 µg/mL
same,MIC,[4],0.5 µg/mL
same,MIC,Enterococcus faecalis [5],2 µg/mL
same,MIC,Enterococcus faecalis [6],8 µg/mL
same,MIC,Enterococcus faecium [7],2 µg/mL
same,MIC,Escherichia coli [8],16 µg/mL
same,MIC,Escherichia coli [9],64 µg/mL
same,MIC,Klebsiella pneumoniae [10],64 µg/mL
same,MIC,Klebsiella pneumoniae [11],64 to 128 µg/mL
same,MIC,Klebsiella pneumoniae [12],64 to 128 µg/mL
same,CC50 at 48 h,[13],21.6 µg/mL
same,MIC,Enterococcus faecium [14],8 µg/mL
same,MIC,Staphylococcus aureus [15],0.5 µg/mL
same,MIC,Staphylococcus aureus [16],0.5 µg/mL
same,MIC,Staphylococcus aureus [17],2 µg/mL
same,MIC,[18],0.5 µg/mL
same,MIC,Enterococcus faecalis [19],2 µg/mL
same,MIC,Enterococcus faecalis [20],2 µg/mL
same,MIC,Enterococcus faecium [21],2 µg/mL
same,MIC,Escherichia coli [22],64 µg/mL
same,MIC,Escherichia coli [23],64 µg/mL
same,MIC,Klebsiella pneumoniae [24],64 µg/mL
same,MIC,Klebsiella pneumoniae [25],64 µg/mL
same,MIC,Pseudomonas aeruginosa [26],128 µg/mL
same,MIC,Pseudomonas aeruginosa [27],> 128 µg/mL
same,MIC,Pseudomonas aeruginosa [28],> 128 µg/mL
same,MIC,[29],> 128 µg/mL
same,MIC,Enterobacter cloacae,> 128 µg/mL
same,MIC,Klebsiella aerogenes,64 µg/mL
same,MIC,Serratia marcescens,128 µg/mL
same,MIC,Morganella morganii,8 µg/mL
same,MIC,Providencia rettgeri,> 128 µg/mL
same,MIC,Proteus vulgaris,128 µg/mL
same,MIC,Proteus mirabilis,128 µg/mL
same,MIC,Salmonella typhi,32 µg/mL
same,MIC,Citrobacter freundii,64 µg/mL
same,Ratio,Staphylococcus aureus [31],4 - 8
same,Ratio,[32],4 - 8
same,Ratio,Enterococcus faecalis [33],16 - 64
same,Ratio,Enterococcus faecium [34],16 - 64
